Measurements taken from patent US20250197399A1, “COMPOUNDS, COMPOSITIONS, AND METHODS” (Tenvie Therapeutics, Inc., priority 2022, published 2025).
Read-outs that look alike come from different tables or passages of the source.

Tested on: NLRP3
Assay: IL-1β secretion assay in PMA-differentiated, LPS/nigericin-stimulated THP-1 cells (ELISA)
Type: cell-based
Settings: 25 ng/mL LPS then nigericin, IL-1β in supernatant
Description: Compounds as provided herein were tested in the following assay. Cell culture medium employed contained RPMI 1640 medium (89%), FBS (10%), Pen/Strep (1%), and 2-mercaptoethanol (0.05 mM). Freezing medium was made up of 90% FBS and 10% DMSO. THP-1 cells were removed from the liquid nitrogen and placed into a 37° C. water bath to thaw, until signs of ice dissipated. The cells were then added to 9 mL of warm cell culture medium and centrifuged for 5 minutes at 1000 rpm. The supernatant was discarded, and the cells were resuspended in new cell culture medium. THP-1 cells were then split and cultured in the cell culture medium, being passaged every 2-3 days with the cell density will be maintained between 5×10^5 and 1.5×10^6 viable cells/mL.
PMA was dissolved in DMSO to make a stock solution at 5 mg/ml and stored in 10 μl aliquots at −20° C. for single use. PMA is added to normal growth medium. LPS was diluted with 1 mL of water solution to provide a 1 mg/mL stock solution and stored in 15 μL aliquots at −20° C. for single use. Nigericin is diluted in ice cold 100% ethanol to 5 mg/ml (6.7 mM) and stored in 75 μL aliquots at −20° C. for single use. Serum-free media contains RPMI 1640 medium (99%), Pen/Strep (1%), and 2-mercaptoethanol (0.05 mM). The two control conditions used to qualify and normalize test compound dose-response curves were as follows: High Control=25 ng/mL LPS, […], 0.5% DMSO, Low Control=25 ng/mL, LPS, 0.5% DMSO.
THP-1 cells were diluted to provide a suspension at a concentration of 1.0×10^6 cells/mL with the total volume of suspension required to enable the desired number of assay plates. The growth media was supplemented with PMA (5 ng/mL final concentration) and the cells were incubated at 37° C. under a humidified atmosphere of 5% CO2 for 40 h.
All media was carefully aspirated from each culture flask. The cells were washed carefully with 1×DPBS. The cells were then briefly digested with trypsin LE for 5 minutes at 23° C. and immediately resuspended in cell growth media. After resuspension, the cells were centrifuged at 1000 rpm for 3 minutes and the supernatant was discarded. The cells were resuspended in DPBS and once again centrifuged at 1000 rpm for 5 minutes. The supernatant was discarded and the cell pellet was resuspended in serum-free media supplemented with LPS (25 ng/mL final concentration) to enable the distribution of 30K THP-1 cells within 45 μL of media into each well of 384-well PDL-coated plates. The 384-well plates were then incubated at 37° C. under a humidified atmosphere of 5% CO2 for 2 h. Following this period, test compounds were dispensed by Tecan across the desired concentration range with all wells normalized to a final 0.5% DMSO concentration. The plates were then then incubated at 37° C. under a humidified atmosphere of 5% CO2 for 1 h. Following this period, 5 μL of the 5 mg/mL nigericin stock solution was added to each of the appropriate wells and plates were centrifuged at 1000 rpm for 30 seconds. The plates were the immediately reintroduced to the incubator at 37° C. under a humidified atmosphere of 5% CO2 for 2 h. After this time, 35 μL/well of supernatant was collected and transferred into v-bottom plate and centrifuged at 1000 rpm for 1 minute. These supernatant aliquots were analyzed using an IL-Iβ detection kit as described below. If needed, the test samples could be snap frozen and stored at −80° C. until analyzed.
To prepare each ELISA plate, capture antibody (mAb Mt175) was diluted with PBS to a final concentration of […] and then 20 μL of this solution was added to each well of the ELISA plate. Each plate was allowed to incubate overnight at 4° C. The next day, the capture antibody solution was removed and discarded. Each ELISA plate was washed 4 times with PBST followed by the addition of 25 µL/well of blocking buffer (Licor-927-40010) supplemented with 0.1% Tween 20. Each ELISA plate was then allowed to incubate for 1 hour at 23° C. […]

[1] = Homo sapiens, THP-1, THP-1 cells, read-out: Activity (IC50 class)
[2] = THP-1 cells, read-out: Activity
[3] = THP-1 cells, read-out: Activity (IC50 class)
[4] = Homo sapiens, THP-1, THP-1 cells, read-out: Activity

| SMILES | IC50 [1] | IC50 [2] | IC50 [3] | IC50 [4] |
| --- | --- | --- | --- | --- |
| O=C(CN1C[C@]2(C[C@H]2F)c2cc(C(F)(F)F)ccc2C1=O)Nc1nc2ccccn2n1 (single isomer, unassigned) [Example 49, 2-[(2′s,4r)-2′-fluoro-1-oxo-6-(trifluoromethyl)spiro[3H-isoquinoline-4,1′-cyclopropane]-2-yl]-N-([1,2,4]triazolo[1,5-a]pyridin-2-yl)acetamide] | 1 to 10 µM | 1.96 µM |  |  |
| O=C(CN1C[C@]2(C[C@H]2F)c2cc(C(F)(F)F)ccc2C1=O)Nc1nc2ccccn2n1 (single isomer, unassigned) [Example 50, 2-[(2′s,4r)-2′-fluoro-1-oxo-6-(trifluoromethyl)spiro[3H-isoquinoline-4,1′-cyclopropane]-2-yl]-N-([1,2,4]triazolo[1,5-a]pyridin-2-yl)acetamide] |  | 0.184 µM | < 1 µM |  |
| O=C(CN1CC2(CC2(F)F)c2cc(Br)ccc2C1=O)Nc1ncc2cn[nH]c2n1 (single isomer, unassigned) [Example 64, 2-(6-bromo-1′,1′-difluoro-1-oxospiro[3H-isoquinoline-4,2′-cyclopropane]-2-yl)-N-(1H-pyrazolo[3,4-d]pyrimidin-6-yl)acetamide] | < 1 µM | 0.008 µM |  |  |
| O=C(CN1CC2(CC2(F)F)c2cc(Br)ccc2C1=O)Nc1ncc2cn[nH]c2n1 (single isomer, unassigned) [Example 65, 2-(6-bromo-1′,1′-difluoro-1-oxospiro[3H-isoquinoline-4,2′-cyclopropane]-2-yl)-N-(1H-pyrazolo[3,4-d]pyrimidin-6-yl)acetamide] |  | 0.504 µM | < 1 µM |  |
| O=C(CN1C[C@]2(C[C@H]2F)c2cc(C3(F)CC3)ccc2C1=O)Nc1ncc(C(F)(F)F)cn1 [Example 1, 2-[(2′R,4S)-2′-fluoro-6-(1-fluorocyclopropyl)-1-oxospiro[3H-isoquinoline-4,1′-cyclopropane]-2-yl]-N-(5-(trifluoromethyl)pyrimidin-2-yl)acetamide] | < 1 µM |  |  | 0.024 µM |
| N#Cc1cnc(NC(=O)CN2C[C@]3(C[C@H]3F)c3cc(C4(F)CC4)ccc3C2=O)nc1 [Example 3, 2-[(2′R,4S)-2′-fluoro-6-(1-fluorocyclopropyl)-1-oxospiro[3H-isoquinoline-4,1′-cyclopropane]-2-yl]-N-(5-cyanopyrimidin-2-yl)acetamide] | < 1 µM |  |  | 0.017 µM |
| O=C(CN1CC(C(F)(F)F)c2cc(I)ccc2C1=O)Nc1ncc(Cl)cn1 (stereo not shown) [Example 7, N-(5-chloropyrimidin-2-yl)-2-(6-iodo-1-oxo-4-(trifluoromethyl)-3,4-dihydroisoquinolin-2(1H)-yl)acetamide] | < 1 µM |  |  | 0.017 µM |
| Cc1cnc(NC(=O)CN2CC(C(F)(F)F)c3cc(I)ccc3C2=O)nc1 (stereo not shown) [Example 8, 2-(6-iodo-1-oxo-4-(trifluoromethyl)-3,4-dihydroisoquinolin-2(1H)-yl)-N-(5-methylpyrimidin-2-yl)acetamide] | < 1 µM |  |  | 0.044 µM |
| Cc1cnc(NC(=O)CN2CC(C(F)(F)F)c3cc(C)ccc3C2=O)nc1 (stereo not shown) [Example 9, 2-(6-methyl-1-oxo-4-(trifluoromethyl)-3,4-dihydroisoquinolin-2(1H)-yl)-N-(5-methylpyrimidin-2-yl)acetamide] | 1 to 10 µM |  |  | 1.54 µM |
| O=C(CN1CC2(CC2)c2c(ccc(Br)c2F)C1=O)Nc1ncc2cn[nH]c2n1 [Example 46, 2-(6-bromo-5-fluoro-1-oxospiro[3H-isoquinoline-4,1′-cyclopropane]-2-yl)-N-(1H-pyrazolo[3,4-d]pyrimidin-6-yl)acetamide] | < 1 µM |  |  | 0.038 µM |

Results, then the compound that gave them:

| IC50 [1] | IC50 [2] | IC50 [3] | IC50 [4] | SMILES |
| --- | --- | --- | --- | --- |
|  | 22.4 µM | > 10 µM |  | C[C@]1(O)C[C@@H](NC(=O)CN2CC3(CC3(F)F)c3cc(C(F)(F)F)ccc3C2=O)C1 (single isomer, unassigned) [Example 52, 2-[1′,1′-difluoro-1-oxo-6-(trifluoromethyl)spiro[3H-isoquinoline-4,2′-cyclopropane]-2-yl]-N-(3-cis-hydroxy-3-methylcyclobutyl)acetamide] |
|  | 0.472 µM | < 1 µM |  | C[C@]1(O)C[C@@H](NC(=O)CN2CC3(CC3(F)F)c3cc(C(F)(F)F)ccc3C2=O)C1 (single isomer, unassigned) [Example 53, 2-[1′,1′-difluoro-1-oxo-6-(trifluoromethyl)spiro[3H-isoquinoline-4,2′-cyclopropane]-2-yl]-N-(3-cis-hydroxy-3-methylcyclobutyl)acetamide] |
|  | 0.363 µM | < 1 µM |  | O=C(CN1CC2(CC2)c2cc(Br)ccc2C1=O)NC1CC(O)(C2CC2)C1 (single isomer, unassigned) [Example 56, 2-(6-bromo-1-oxospiro[3H-isoquinoline-4,1′-cyclopropane]-2-yl)-N-(3-cyclopropyl-3-hydroxycyclobutyl)acetamide] |
|  | 11.1 µM | > 10 µM |  | O=C(CN1CC2(CC2)c2cc(Br)ccc2C1=O)NC1CC(O)(C2CC2)C1 (single isomer, unassigned) [Example 57, 2-(6-bromo-1-oxospiro[3H-isoquinoline-4,1′-cyclopropane]-2-yl)-N-(3-cyclopropyl-3-hydroxycyclobutyl)acetamide] |
| < 1 µM |  |  | 0.018 µM | Cc1cnc(NC(=O)CN2C[C@]3(C[C@H]3F)c3cc(C4(F)CC4)ccc3C2=O)nc1 [Example 2, 2-[(2′R,4S)-2′-fluoro-6-(1-fluorocyclopropyl)-1-oxospiro[3H-isoquinoline-4,1′-cyclopropane]-2-yl]-N-(5-methylpyrimidin-2-yl)acetamide] |
| < 1 µM |  |  | 0.016 µM | C[C@]1(O)C[C@@H](NC(=O)CN2C[C@]3(C[C@H]3F)c3cc(C4(F)CC4)ccc3C2=O)C1 [Example 4, N-(3-cis-hydroxy-3-methylcyclobutyl)-2-[(2′R,4S)-2′-fluoro-6-(1-fluorocyclopropyl)-1-oxospiro[3H-isoquinoline-4,1′-cyclopropane]-2-yl]acetamide] |
| < 1 µM |  |  | 0.002 µM | C[C@]1(O)C[C@@H](NC(=O)CN2C[C@]3(C[C@H]3F)c3c(ccc(I)c3F)C2=O)C1 [Example 5, N-(3-cis-hydroxy-3-methylcyclobutyl)-2-[(2′s,4r)-2′,5-difluoro-6-iodo-1-oxospiro[3H-isoquinoline-4,1′-cyclopropane]-2-yl]acetamide] |
| < 1 µM |  |  | 0.072 µM | C[C@]1(O)C[C@@H](NC(=O)CN2C[C@]3(C[C@H]3F)c3c(ccc(C4CC4)c3F)C2=O)C1 [Example 6, N-(3-cis-hydroxy-3-methylcyclobutyl)-2-[(2′s,4r)-2′,5-difluoro-6-cyclopropyl-1-oxospiro[3H-isoquinoline-4,1′-cyclopropane]-2-yl]acetamide] |
| < 1 µM |  |  | 0.061 µM | O=C(CN1CC2(CC2)c2cc(Br)ccc2C1=O)Nc1ncc2cn[nH]c2n1 [Example 42, 2-(6-bromo-1-oxo-spiro[3H-isoquinoline-4,1′-cyclopropane]-2-yl)-N-(1H-pyrazolo[3,4-d]pyrimidin-6-yl)acetamide] |
| < 1 µM |  |  | 0.181 µM | O=C(CN1CC2(CC2)c2cc(C(F)(F)F)ccc2C1=O)Nc1ncc2cn[nH]c2n1 [Example 51, 2-[1-oxo-6-(trifluoromethyl)spiro[3H-isoquinoline-4,1′-cyclopropane]-2-yl]-N-(1H-pyrazolo[3,4-d]pyrimidin-6-yl)acetamide] |
